Results on two substances are retold here after US20050209157A1, “Short bioactive peptides and methods for their use” (priority 2001, published 2005).

No end group written: not given here.

For data set [1], the system named is human red blood cells (RBC). In words: in vitro. In kind it is cell-based. The following applies: hemolytic assay, concentration at 50% hemolysis, 1 hour at 37° C.
For another data set, the system named is Pseudomonas aeruginosa. Kind of data set: Serum inactivation of peptides, serum MIC. The data set is classed as cell-based. The following applies: for MIC 30 min treatment: sheep serum 37° C. 30 minutes; for MIC 2 hr treatment: sheep serum 37° C. 2 hours. On the procedure:
Subsequently, the serum MICs against Pseudomonas aeruginosa were conducted to determine extent of serum inactivation of the peptides.

For “MPKWKVFKKIEKVGRNIRNGIVKAGPAIAVLGEAKALG-NH2 [P12, reference compound]”, the LD50 result in data set [1] is given as “> (> indicates greater than 1000)”.
On to FALKALKKLKKALKKAL-NH2 [P153], for which the “MIC 30 min treatment” value against Pseudomonas aeruginosa (first of two columns) was 10 µg/mL; against Pseudomonas aeruginosa (second of two columns), 5 µg/mL. Moreover, the “MIC 2 hr treatment” value in the data set on Pseudomonas aeruginosa (first of two columns) worked out at 20 µg/mL; in the data set with Pseudomonas aeruginosa (second of two columns), 5 µg/mL. The “change of activity by exposure to serum (serum MIC against Pseudomonas aeruginosa)” value with Pseudomonas aeruginosa (sheep serum, […], 37° C. for 30 minutes or 2 hours) is given as “only modestly decreased”.
